Assay results: patent US20230116972A1, “CD38 MODULATORS AND METHODS OF USE THEREOF” (Cytokinetics, Inc., priority 2021, published 2023)
pIC50: −log10 of the molar value.

How the values were obtained:
human CD38 = target: T1, human CD38 (Homo sapiens, UniProt P28907); test: human recombinant CD38 enzyme assay (hydrolysis of NAD+); format: biochemical; settings: human recombinant CD38, 0.4 nM enzyme, 62.5 μM NAD+; read-out: hCD38 BioChem IC50
T1 sequence (P28907 1-300): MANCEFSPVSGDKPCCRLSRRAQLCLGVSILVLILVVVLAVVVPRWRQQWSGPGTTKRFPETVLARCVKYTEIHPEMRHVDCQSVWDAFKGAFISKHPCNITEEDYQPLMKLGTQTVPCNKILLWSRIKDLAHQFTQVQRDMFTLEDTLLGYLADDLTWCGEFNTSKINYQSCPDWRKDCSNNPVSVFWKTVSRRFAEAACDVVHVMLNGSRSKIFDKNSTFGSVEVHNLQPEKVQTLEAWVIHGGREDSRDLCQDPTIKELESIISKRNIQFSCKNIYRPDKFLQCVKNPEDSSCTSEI
Method in brief: (§1)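 Inhibitors were titrated against purified CD38 hydrolysing NAD+ for 60 min at ambient temperature. Unconsumed substrate was quantified enzymatically via NADH-coupled resazurin reduction and fluorescence.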

mouse CD38 = target: T2, mouse CD38 (Mus musculus, UniProt P56528); test: mouse recombinant CD38 enzyme assay (hydrolysis of NAD+); format: biochemical; settings: read-out: mCD38 BioChem IC50
T2 sequence (P56528 1-304): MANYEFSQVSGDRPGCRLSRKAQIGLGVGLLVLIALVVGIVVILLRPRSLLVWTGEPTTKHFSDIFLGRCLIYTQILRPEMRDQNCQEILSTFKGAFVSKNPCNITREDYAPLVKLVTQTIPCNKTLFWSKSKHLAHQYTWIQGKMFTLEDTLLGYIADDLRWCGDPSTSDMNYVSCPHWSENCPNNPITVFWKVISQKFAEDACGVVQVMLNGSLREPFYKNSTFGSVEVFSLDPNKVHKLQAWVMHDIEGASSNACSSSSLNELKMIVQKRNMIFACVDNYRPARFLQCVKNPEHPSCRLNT
Method in brief: as §1

[1] = target: T3, endogenous CD38 in HL60 cells (Homo sapiens, UniProt P28907); test: cellular CD38 assay in HL60 cells (cellular NAD levels); format: cell-based; settings: all-trans retinoic acid, 24 hours, read-out: hCD38 HL60 ATRA NAD Cell Diaphorase IC50
T3 construct: endogenous in cells; host or cells: HL60 (leukemic cells, treated with all-trans retinoic acid)
T3 sequence (P28907 1-300): T1 sequence (P28907 1-300)
Method in brief: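 HL60 cells (20000/well) were treated with compound in DMSO for 24 h. Cellular NAD was then measured by an enzymatic cycling mix (alcohol dehydrogenase, diaphorase, 40 uM resazurin, 10 uM FMN, 3% ethanol, Triton X-100, pH 8.4).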

Compound | pIC50 (human CD38) | pIC50 (mouse CD38) | pIC50 [1]
Cc1cc(C(=O)Nc2ccc(C(F)F)nc2)nc(-c2cncs2)c1 [Compound 132, N-(6-(difluoromethyl)pyridin-3-yl)-4-methyl-6-(thiazol-5-yl)picolinamide] | 6.94 | 7.26 | 5.25
CC(C)(O)[C@H]1CC[C@H](NC(=O)c2cccc(-n3ccnc3)n2)CC1 [Compound 134, N-((1r,4r)-4-(2-Hydroxypropan-2-yl)cyclohexyl)-6-(1H-imidazol-1-yl)picolinamide] | 7.43 | 8.30 | 5.52
O=C(NC1CC2C(C1)C2(F)F)c1cccc(-n2ccnc2)n1 (stereo not drawn) [Compound 135, N-(6,6-difluorobicyclo[3.1.0]hexan-3-yl)-6-(1H-imidazol-1-yl)picolinamide] | 7.12 | 7.82 | 5.88
O=C(NC1CCC(F)(F)CC1)c1cccc(-n2ccnc2)n1 [Compound 136, N-(4,4-difluorocyclohexyl)-6-(1H-imidazol-1-yl)picolinamide] | 7.64 | 8.22 | 5.81
Cc1ccc(NC(=O)c2cc(C(F)(F)F)nc(-n3ccnc3)n2)cn1 [Compound 137, 2-(1H-imidazol-1-yl)-N-(6-methylpyridin-3-yl)-6-(trifluoromethyl)pyrimidine-4-carboxamide] | 8.10 | 8.15 | 6.06
O=C(N[C@H]1CC[C@H](C(F)F)CC1)c1cc(C(F)(F)F)nc(-n2ccnc2)n1 [Compound 138, N-((1r,4r)-4-(difluoromethyl)cyclohexyl)-2-(1H-imidazol-1-yl)-6-(trifluoromethyl)pyrimidine-4-carboxamide] | 7.14 | 7.60 | 5.52
O=C(Nc1ccc(C(F)F)nc1)c1nccc(-n2ccnc2)n1 [Compound 144, N-(6-(difluoromethyl)pyridin-3-yl)-4-(1H-imidazol-1-yl)pyrimidine-2-carboxamide] | 8.52 | 7.85 | 6.89
C[C@H]1CC[C@H](NC(=O)c2nccc(-n3ccnc3)n2)CC1 [Compound 146, 4-(1H-imidazol-1-yl)-N-((1r,4r)-4-methylcyclohexyl)pyrimidine-2-carboxamide] | 7.21 | 7.64 | 5.77
Cn1cncc1-c1ccnc(C(=O)Nc2ccc(C(F)F)nc2)n1 [Compound 147, N-(6-(difluoromethyl)pyridin-3-yl)-4-(1-methyl-1H-imidazol-5-yl)pyrimidine-2-carboxamide] | 8.70 | 8.22 | 6.82
Cn1cncc1-c1ccnc(C(=O)N[C@H]2CC[C@H](C)CC2)n1 [Compound 149, 4-(1-methyl-1H-imidazol-5-yl)-N-((1r,4r)-4-methylcyclohexyl)pyrimidine-2-carboxamide] | 7.37 | 7.89 | 5.86
CO[C@H]1CC[C@H](NC(=O)c2cc(C(F)(F)F)nc(-c3cncn3C)n2)CC1 [Compound 151, N-((1r,4r)-4-methoxycyclohexyl)-2-(1-methyl-1H-imidazol-5-yl)-6-(trifluoromethyl)pyrimidine-4-carboxamide] | 7.85 | 9.00 | 5.71
Cn1cncc1-c1nc(C(=O)N[C@H]2CC[C@H](C(F)F)CC2)cc(C(F)(F)F)n1 [Compound 152, N-((1r,4r)-4-(difluoromethyl)cyclohexyl)-2-(1-methyl-1H-imidazol-5-yl)-6-(trifluoromethyl)pyrimidine-4-carboxamide] | 7.89 | 9.00 | 5.63
Cn1cncc1-c1nc(C(=O)N[C@H]2CC[C@H](C)CC2)cc(C(F)(F)F)n1 [Compound 153, 2-(1-methyl-1H-imidazol-5-yl)-N-((1r,4r)-4-methylcyclohexyl)-6-(trifluoromethyl)pyrimidine-4-carboxamide] | 7.60 | 8.70 | 5.50
